Data: patent publication US9783552B2, “Soluble guanylate cyclase activators” (MERCK SHARP & DOHME CORP., priority 2013, dated 2017)

Target: T1, sGC α1/β1 heterodimer (Homo sapiens, UniProt Q02108+Q02153)
T1 construct: expressed in transfected cells
T1 sequence (Q02108 1-690): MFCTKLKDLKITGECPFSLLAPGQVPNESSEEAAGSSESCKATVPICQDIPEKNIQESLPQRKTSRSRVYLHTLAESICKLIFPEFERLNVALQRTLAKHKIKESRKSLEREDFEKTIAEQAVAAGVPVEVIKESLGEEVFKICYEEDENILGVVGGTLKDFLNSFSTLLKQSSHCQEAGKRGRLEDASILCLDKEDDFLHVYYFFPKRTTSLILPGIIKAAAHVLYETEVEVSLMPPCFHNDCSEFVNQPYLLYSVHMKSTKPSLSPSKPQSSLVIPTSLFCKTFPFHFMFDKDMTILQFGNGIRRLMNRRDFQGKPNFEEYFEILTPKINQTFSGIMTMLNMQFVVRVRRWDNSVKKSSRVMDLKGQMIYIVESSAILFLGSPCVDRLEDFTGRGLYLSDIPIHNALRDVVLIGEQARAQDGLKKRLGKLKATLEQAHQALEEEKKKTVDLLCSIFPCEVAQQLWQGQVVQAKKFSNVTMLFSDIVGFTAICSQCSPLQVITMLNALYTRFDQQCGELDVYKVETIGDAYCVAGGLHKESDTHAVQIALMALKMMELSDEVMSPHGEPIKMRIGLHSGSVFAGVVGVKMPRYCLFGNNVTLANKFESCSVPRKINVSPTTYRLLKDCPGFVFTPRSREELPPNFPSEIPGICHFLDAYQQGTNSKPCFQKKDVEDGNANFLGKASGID
T1 sequence (Q02153 1-619): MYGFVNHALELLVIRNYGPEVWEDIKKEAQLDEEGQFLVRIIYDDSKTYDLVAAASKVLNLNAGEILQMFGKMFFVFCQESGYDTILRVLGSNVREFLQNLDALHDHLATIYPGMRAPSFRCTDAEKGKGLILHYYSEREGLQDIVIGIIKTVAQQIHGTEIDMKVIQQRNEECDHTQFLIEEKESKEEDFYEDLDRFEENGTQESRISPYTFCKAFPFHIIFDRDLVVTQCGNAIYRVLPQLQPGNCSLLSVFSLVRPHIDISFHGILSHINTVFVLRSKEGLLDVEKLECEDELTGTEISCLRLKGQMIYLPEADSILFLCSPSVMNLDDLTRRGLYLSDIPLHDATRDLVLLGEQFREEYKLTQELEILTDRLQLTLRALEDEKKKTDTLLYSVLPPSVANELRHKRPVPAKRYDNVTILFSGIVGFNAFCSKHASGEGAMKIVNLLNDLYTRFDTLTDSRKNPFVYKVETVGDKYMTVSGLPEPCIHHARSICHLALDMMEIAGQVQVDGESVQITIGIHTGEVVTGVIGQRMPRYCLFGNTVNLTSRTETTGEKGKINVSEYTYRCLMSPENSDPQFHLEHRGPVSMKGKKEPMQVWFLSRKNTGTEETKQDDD
Assay: Cell-Based sGC Functional Assay (CASA Assay)
Conditions: CHO-K1/sGC cells; for EC50: intracellular cGMP by HTRF, 1 hr at 37° C., IP from 4P fit, presence or absence of 1 μM DETA-NO not given; for Emax: cGMP as percentage of maximum cGMP production of Compound A (=100% activation), read-out: % ACT (percent activation)
Source text: Biological Assays: Cell-Based sGC Functional Assay (CASA Assay)
sGC is a heme-containing enzyme that converts GTP to secondary messenger cGMP. Increases in cGMP levels affect several physiological processes including vasorelaxation through multiple downstream pathways. […] Heme-dependent activators (HDAs) preferentially activate sGC containing a ferrous heme group. To determine the effect of sGC activators on enzyme activity, the CASA assay was developed to monitor the generation of cGMP in a cell line that stably expresses the heterodimeric sGC protein.
A CHO-K1 cell line stably expressing the sGC α1/β1 heterodimer was generated using a standard transfection protocol. CHO-K1 cells were transfected with plasmids pIREShyghsGCα1 and pIRESneo-hsGCβ1 simultaneously using FUGENE reagent. Clones that stably express both subunits were selected with hygromycin and neomycin for ˜2 weeks. Clone #7 was chosen for the assay and was designated CHO-K1/sGC. CHO-K1/sGC cells were maintained in F-K12 medium containing 10% heat-inactivated Fetal Bovine Serum (FBS), 100 μg/mL penicillin/streptomycin, 0.5 mg/mL hygromycin and 0.25 mg/mL G418. The cells were then cryopreserved in LN2. On the day of the assay, cells were thawed and resuspended in EBSS Assay Buffer (EAB, Sigma, E3024) supplemented with 5 mM MgCl2, 10 mM HEPES (4-(2-hydroxyethyl)piperazine-1-ethanesulfonic acid) and 0.05% BSA (bovine serum albumin) and cell density was then adjusted to 4×10^5/mL with EAB. IBMX (3-isobutyl-1-methylxanthin, 0.5 mM) was added to inhibit degradation of cGMP. Compounds were diluted from DMSO stock solutions and added to the assay at a final DMSO concentration of 2.5%. Cells were incubated with compounds in the presence and absence of 1 μM of Diethylenetriamine/nitric oxide adduct (DETA-NO; Sigma, 17018) for 1 hr at 37° C. At the end of the incubation period, the reaction was terminated and the cells were lysed with the detection reagents from Cisbio Kits. The level of intracellular cGMP was determined using an HTRF-based assay kit (CisBio, 62GM2PEC), which detects the displacement of a fluorescence labeled cGMP from its specific antibody. The cGMP produced by test compounds was directly compared to the maximum cGMP production (this value was set to equal 100% activation) of the published sGC-HDA Compound A:
[drawing 123] (Example 1 in WO 2010/065275, published Jun. 10, 2010). The test compounds' activity was then expressed as a percentage of Compound A, the standard in every experiment. This percent activation was calculated either in the presence or absence of DETA-NO which was then plotted. IP and maximum fold induction was derived using ADA analysis software for 4P fit.

EC50 [nM] | Emax [%] | Compound
21 | 110 | [2H]C([2H])([2H])n1ncc2c(-c3nc(N)c4c(n3)NC(=O)C4(C)c3cccc(OC)c3)nc(CCC(F)(F)C(F)(F)F)nc21 (single isomer, unassigned) [Example 14, 4-Amino-5-(3-methoxyphenyl)-5-methyl-2-(6-(3,3,4,4,4-pentafluorobutyl)-1-trideuteriomethyl-1H-pyrazolo[3,4-d]pyrimidin-4-yl)-5H-pyrrolo[2,3-d]pyrimidin-6(7H)-one]
111 | 88 | [2H]C([2H])([2H])n1ncc2c(-c3nc(N)c4c(n3)NC(=O)C4(C)c3cccc(O)c3)nc(CCC(F)(F)C(F)(F)F)nc21 (centres unmarked) [Example 44, 4-Amino-5-(3-hydroxyphenyl)-5-methyl-2-(6-(3,3,4,4,4-pentafluorobutyl)-1-trideuteriomethyl-1H-pyrazolo[3,4-d]pyrimidin-4-yl)-5H-pyrrolo[2,3-d]pyrimidin-6(7H)-one]
299 | 94 | [2H]C([2H])([2H])n1nc(C2CC2)c2c(-c3nc(N)c4c(n3)NC(=O)C4(C)c3ccc(F)cc3)nc(CCC(F)(F)C(F)(F)F)nc21 (centres unmarked) [Example 59, 4-Amino-2-(3-cyclopropyl-6-(3,3,4,4,4-pentafluorobutyl)-1-trideuteriomethyl-1H-pyrazolo[3,4-d]pyrimidin-4-yl)-5-(4-fluorophenyl)-5-methyl-5H-pyrrolo[2,3-d]pyrimidin-6(7H)-one]
197 | 116 | Cn1ncc2c(-c3nc(N)c4c(n3)NC(=O)C4(C)c3ccc(Br)cc3)nc(CCC(F)(F)C(F)(F)F)nc21 (single isomer, unassigned) [Example 10, 4-Amino-5-(4-bromophenyl)-5-methyl-2-(1-methyl-6-(3,3,4,4,4-pentafluorobutyl)-1H-pyrazolo[3,4-d]pyrimidin-4-yl)-5H-pyrrolo[2,3-d]pyrimidin-6(7H)-one]
716 | 138 | [2H]C([2H])([2H])n1ncc2c(-c3nc(N)c4c(n3)NC(=O)C4(C)c3ccc(-c4nnco4)cc3)nc(CCC(F)(F)C(F)(F)F)nc21 (single isomer, unassigned) [Example 45, 5-(4-(1,3,4-Oxadiazol-2-yl)phenyl)-4-amino-5-methyl-2-(1-methyl-6-(3,3,4,4,4-pentafluorobutyl)-1H-pyrazolo[3,4-d]pyrimidin-4-yl)-5H-pyrrolo[2,3-d]pyrimidin-6(7H)-one]
664 | 93 | [2H]C([2H])([2H])n1ncc2c(-c3nc(O)c4c(n3)NC(=O)C4(C)c3ccc(F)cc3)nc(CCC(F)(F)C(F)(F)F)nc21 (centres unmarked) [Example 48, 5-(4-Fluorophenyl)-4-hydroxy-5-methyl-2-(6-(3,3,4,4,4-pentafluorobutyl)-1-trideuteriomethyl-1H-pyrazolo[3,4-d]pyrimidin-4-yl)-5H-pyrrolo[2,3-d]pyrimidin-6(7H)-one]

Second part, the compound before the results:

Compound | EC50 [nM] | Emax [%]
CC1(c2ccccc2)C(=O)Nc2nc(-c3nc(CCC(F)(F)C(F)(F)F)nc4[nH]ccc34)nc(N)c21 (single isomer, unassigned) [Example 65, 4-Amino-5-methyl-2′-(3,3,4,4,4-pentafluorobutyl)-5-phenyl-5H,7′H-[2,4′-bipyrrolo[2,3-d]pyrimidin]-6(7H)-one] | 255 | 102
CC1(c2ccc(F)cc2)C(=O)Nc2nc(-c3nc(CCC(F)(F)C(F)(F)F)nc4[nH]ncc34)nc(N)c21 (single isomer, unassigned) [Example 8, 4-Amino-5-(4-fluorophenyl)-5-methyl-2-(6-(3,3,4,4,4-pentafluorobutyl)-1H-pyrazolo[3,4-d]pyrimidin-4-yl)-5H-pyrrolo[2,3-d]pyrimidin-6(7H)-one] | 341 | 109
[2H]C([2H])([2H])n1ncc2c(-c3nc(N)c4c(n3)NC(=O)C4(C)C(=O)Nc3cnn(C)c3)nc(CCC(F)(F)C(F)(F)F)nc21 (single isomer, unassigned) [Example 42, 4-amino-5-methyl-N-(1-methyl-1H-pyrazol-4-yl)-2-(6-(3,3,4,4,4-pentafluorobutyl)-1-trideuteriomethyl-1H-pyrazolo[3,4-d]pyrimidin-4-yl)-6-oxo-6,7-dihydro-5H-pyrrolo[2,3-d]pyrimidine-5-carboxamide] | 111 | 134
Cn1ccc2c(-c3nc(N)c4c(n3)NC(=O)C4(C)C)nc(CCC(F)(F)C(F)(F)F)nc21 [Example 63, 4-Amino-5,5,7′-trimethyl-2′-(3,3,4,4,4-pentafluorobutyl)-5H,7′H-[2,4′-bipyrrolo[2,3-d]pyrimidin]-6(7H)-one] | 502 | 76
[2H]C([2H])([2H])n1ncc2c(-c3nc(N)c4c(n3)NC(=O)C4(CC)C(=O)NC3CC3)nc(CCC(F)(F)C(F)(F)F)nc21 (single isomer, unassigned) [Example 34, 4-Amino-N-cyclopropyl-5-ethyl-2-(6-(3,3,4,4,4-pentafluorobutyl)-1-trideuteriomethyl-1H-pyrazolo[3,4-d]pyrimidin-4-yl)-6-oxo-6,7-dihydro-5H-pyrrolo[2,3-d]pyrimidine-5-carboxamide] | 143 | 122
[2H]C([2H])([2H])n1ncc2c(-c3nc(N)c4c(n3)NC(=O)C4(C(=O)NC3CC3)C(C)C)nc(CCC(F)(F)C(F)(F)F)nc21 (single isomer, unassigned) [Example 35, 4-Amino-N-cyclopropyl-5-isopropyl-2-(6-(3,3,4,4,4-pentafluorobutyl)-1-trideuteriomethyl-1H-pyrazolo[3,4-d]pyrimidin-4-yl)-6-oxo-6,7-dihydro-5N-pyrrolo[2,3-d]pyrimidine-5-carboxamide] | 62 | 107
[2H]C([2H])([2H])n1nnc2c(-c3nc(N)c4c(n3)NC(=O)C4(C)c3ccc(Cl)cc3)nc(CCC(F)(F)C(F)(F)F)nc21 (single isomer, unassigned) [Example 70, 4-Amino-5-(4-chlorophenyl)-5-methyl-2-(5-(3,3,4,4,4-pentafluorobutyl-3-trideuteriomethyl)-3H-[1,2,3]triazolo[4,5-d]pyrimidin-7-yl)-5H-pyrrolo[2,3-d]pyrimidin-6(7H)-one] | 327 | 95
